Earlier results in patent publication US8507011B2, “Method for suppressing or preventing fibrous adhesion formation using a multicomponent aqueous oxychlorine composition prepared on-site” (priority 2009, dated 2013).

Tests used:
wound = settings: 0.01% concentration
adhesion = settings: interperitoneal infusion, rats

| SMILES | pKa | Wound irrigant activity (in words) (wound) | Adhesion suppression versus control (in words) (adhesion) |
| --- | --- | --- | --- |
| OCl [hypochlorous acid] | about 7.5 | showed promise as an effective antimicrobial wound irrigant | – |
| CN(C)c1ccc2nc3ccc(=[N+](C)C)cc-3sc2c1 [methylene blue] | – | – | none were found between methylene blue and control |
